Results from patent US20030198617A1, “Pharmaceutical tryptophan containing dipeptide compositions and methods of use thereof” (priority 1993, published 2003).
Marks after values point to notes of the source that are not given here.

Tests used:
T-cells = assay: T-cell rosette assay; assay type: cell-based; conditions: 10^6 cells per ml
skin grafts = assay: Skin allograft survival in mice; assay type: in vivo
[1] = Immunity and non-specific resistance indices in breast cancer patients after radiotherapy; assay type: in vivo, human; conditions: after IM862 use
[2] = Chronic prostatitis, clinical result and immunological examination
Procedure: A clinical study of the preparation was conducted in 34 chronic prostatitis patients having active inflammation. Patients were aged 22 to 45 years old. Diagnosis was established by patient complaints, a medical history, palpation of the prostate, and laboratory investigation methods (microscopic examination of prostate gland secretions, spermography, three-cup urinalysis).
A traditional treatment plan was followed simultaneously, using antibacterial preparations, uroantiseptics, physical procedures, prostate gland massage, and therapeutic exercise.
Measurement reliability of the obtained indices was evaluated with the use of variable statistics methods.
The persistent disappearance (over an observation period of 1-1.5 months) of painful sensations, leukocyturia, the lowering of the leukocyte count to normal levels in prostate gland secretions and ejaculate, and the overall improvement in the general state of the patient were all deemed to be a good result.
The normalization of all laboratory indices while complaints of pain persisted in the perineum, sacrum, anal region, scrotum, etc. was rated as a satisfactory result.
The second group was made up of patients with lowered initial indices, and the third had patients with elevated initial indices.

[3] = Immune status in early terms after irradiation; assay type: in vivo, human; conditions: after IM862 therapy
Procedure: The patients described in Example 42 were tested for blood parameters the first few days after exposure to the radiation of the Chernobyl accident. It could be seen from Table 3 below that response to the treatment was observed even after a few weeks of treatment.

Thymectomized patients = assay type: in vivo, human; conditions: IM862 100 μg daily 10 days, repeated every 4-6 months, 12 patients
Text: Prior to therapy these individuals had experienced frequent serious infections including upper respiratory infections.

[4] = Radiation injury patients (Example 67); assay type: in vivo, human; conditions: IM862 100 μg 10 days, 263 patients
Text: A total of 263 patients and 18 control patients sustained exposure to radiation injury. […] A repeated course may be proscribed on the basis of immunological indices, and averages every 4 to 6 months. […] There was an arresting of asthenic syndrome, and an arresting of the somatic pathological exacerbations and reduction of opportunistic infections.

[5] = Patients with fever, toxic symptoms, jaundice (Example 101); assay type: in vivo, human; conditions: IM862 IM or intranasally 5-10 days, 39 patients
Text: A total of 39 patients were studied with 27 patient controls. […] Immunological indices were normalized.

corneal epithelium = assay: Corneal epithelium restoration (experimental data); assay type: in vivo; conditions: IM862 IM, intranasally or ocular installation
[6] = Acute radiation sickness, 6 months after accident, blood parameters; assay type: in vivo, human; conditions: after therapy with IM862
Procedure: The patients described above in Example 47 were tested for blood parameters after 6 months of treatment immediately following exposure to the radiation caused by the Chernobyl accident.

[7] = Cancer patients after radiation and chemo-therapy; assay type: in vivo, human; conditions: IM862 100 μg daily 10 days, 246 patients
Text: If it vas determined necessary based on immunological indices, the treatment regimen was repeated in 4-6 months.

[8] = Resistance to excessive solar radiation in hot marine climates; assay type: in vivo, human; conditions: IM862 intranasally 100 μg 3 days, 27 persons
Procedure: The control group comprised 24 persons. The administration was intranasally 100 μg for 3 days. […] There was also noted suppression of their immunologic indices.

[9] = 34 chronic prostatitis patients
[10] = after treatment 100 μg i.m. for 5 days
[11] = elevated in 1 patient, after treatment
[12] = initial level lowered n = 14, after treatment
[13] = normal in 34 patients, after treatment

## Glu-Trp [IM862]
T-cells
  concentration of peak effect for rosette activity: approximately 0.0006 mcg/ml
Skin grafts; mice, daily for 5 treatments prior to grafting, IM862 0.01 mg/kg, Thymalin 1.0 mg/kg
  GRAFT REJECTION TIME: 8.3 ± 0.4 days
Skin grafts; vs animals not receiving Glu-Trp
  graft survival: prolonged survival
[1]
  B-lymphocyte (Ig^+) (×10^9/l): 0.17 ± 0.02 ×10^9/l
  C3-complement: 0.68 ± 0.04 g/L
  Cation: 1.49 ± 0.12
  LMI with ConA, %: 71 ± 5 %
  Lymphocytes ×10^9/l: 1.72 ± 0.21 ×10^9/l
  OKT4^+/OKT8^+: 1.86 ± 0.17
  Phagocytic index: 3.7 ± 0.2
  T-helpers (OKT4^+): 0.39 ± 0.04
  T-lymphocytes (×10^9/l): 0.92 ± 0.12 ×10^9/l
  T-suppressors (OKT8^+) (×10^9/l): 0.21 ± 0.03 ×10^9/l
  “Active” T-lymphocytes (×10^9/l): 0.52 ± 0.07 ×10^9/l
[1]; delayed-skin hypersensitivity
  DSH to tuberculin (mm): 8.7 ± 0.6 mm
[1]; sensitivity index
  SI to IM862: 1.27 ± 0.14
[2]; [9]
  good result, share of patients: 76.5%
  satisfactory result, number of patients: 8 patients
[2]; 34 chronic prostatitis patients, IM862 with traditional treatment
  good result, number of patients: 26 patients
[2]; IM862 use
  elevated and lowered immune indices upon completion of treatment: a normalization was observed in all the elevated and lowered indices
[2]; [10]
  B-lymphocytes %: 27.24 ± 1.44%
  B-lymphocytes Abs. quantity ×10^9: 0.54 ± 0.10 ×10^9
  Complement units: 29.43 ± 0.53 units
  IgA: 2.20 ± 0.12 g/L
  IgG: 12.52 ± 0.63 g/L
  Imm. complexes units: 0.080 ± 0.004 units
  Phagocytosis %: 39.41 ± 3.51%
  T-lymphocytes %: 44.44 ± 2.34%
  T-lymphocytes Abs. quantity ×10^9: 0.88 ± 0.07 ×10^9
[2]; [11]
  IgG: 14.71 ± 1.42 g/L
  IgM: 3.44 g/L
[2]; initial level elevated n = 2, after treatment
  T-lymphocytes %: 40.0 ± 15.5%
[2]; initial level elevated n = 7, after treatment
  Complement units: 30.7 ± 0.89 units
[2]; initial level elevated n = 8, after treatment
  B-lymphocytes %: 24.8 ± 2.91^x %
[2]; initial level elevated n = 19, after treatment
  Imm. complexes units: 0.08 ± 0.006^x units
[2]; initial level elevated n = 26, after treatment
  Phagocytosis %: 37.7 ± 3.94%
[2]; initial level lowered n = 5, after treatment
  Phagocytosis %: 36.6 ± 8.54^x %
[2]; initial level lowered n = 8, after treatment
  Imm. complexes units: 0.07 ± 0.011 units
[2]; initial level lowered n = 10, after treatment
  B-lymphocytes %: 26.0 ± 2.91^x %
[2]; [12]
  Complement units: 34.2 ± 0.93^x units
  T-lymphocytes %: 37.9 ± 2.24%
[2]; initial level normal n = 3, after treatment
  Phagocytosis %: 58.6 ± 17.98%
[2]; initial level normal n = 7, after treatment
  Imm. complexes units: 0.08 ± 0.006 units
[2]; initial level normal n = 13, after treatment
  Complement units: 29.3 ± 0.88 units
[2]; initial level normal n = 16, after treatment
  B-lymphocytes %: 29.2 ± 2.15%
[2]; initial level normal n = 18, after treatment
  T-lymphocytes %: 50.0 ± 3.57%
[2]; lowered in 2 patients, after treatment
  IgG: 7.80 ± 1.13 g/L
[2]; normal in 33 patients, after treatment
  IgM: 2.08 ± 0.12 g/L
[2]; [13]
  Ig (character image) l: 2.20 ± 0.12
  IgG: 12.51 g/L
[3]
  C3: 0.68 ± 0.04 g/L
  CD2, %: 50.9 ± 2.4%
  CD2, abs: 1.13 ± 0.07** 10^9/l
  CD2-DR+, %: 31 ± 3 %
  CD2-DR+, abs: 0.69 ± 0.08** 10^9/l
  CD19, %: 30.5 ± 1.9 %
  CD19, abs: 0.68 ± 0.04** 10^9/l
  E-RFC, %: 23.4 ± 2.6%
  IgA: 1.11 ± 0.09 g/L
  IgG: 9.2 ± 0.7 g/L
  IgM: 0.58 ± 0.10 g/L
  LMI with ConA, %: 60 ± 7 %
  Leukocytes, abs: 6.4 ± 0.8** 10^9/l
  Lymphocytes, abs: 2.27 ± 0.16** 10^9/l
Thymectomized patients
  clinical effect: normalization of immunologic indices
[4]
  clinical effect: restoration of normal or near normal immune indices
[5]
  clinical effect: reduction of fever
Corneal epithelium
  corneal epithelium: restoration and regeneration of corneal epithelium
[6]
  B-Ig+, %: 19.0 ± 1.3 %
  B-Ig+, abs: 0.29 ± 0.03 10^9/liter
  B-IgA+, %: 1.8 ± 0.3%
  B-IgA+, abs: 0.030 ± 0.002 10^9/liter
  B-IgG+, %: 6.4 ± 0.5 %
  B-IgG+, abs: 0.100 ± 0.007 10^9/liter
  B-IgM+, %: 8.8 ± 0.7%
  B-IgM+, abs: 0.13 ± 0.02 10^9/liter
  CD2, %: 49 ± 3 %
  CD3, %: 53.4 ± 1.8 %
  CD3, abs: 0.82 ± 0.04** 10^9/liter
  CD4, %: 32.6 ± 1.4 %
  CD4, abs: 0.50 ± 0.04* 10^9/liter
  CD19, %: 26.7 ± 2.1%
  CD19, abs: 0.041 ± 0.03** 10^9/liter
  CDS, %: 21.2 ± 1.8%
  CDS, abs: 0.32 ± 0.03 10^9/liter
  IgA: 1.8 ± 0.9 g/L
  IgG: 10.9 ± 1.1 g/L
  IgM: 1.07 ± 0.09 g/L
  LMI: 72.7 ± 4.5
  Lymphocytes %: 30.0 ± 1.8%
  Lymphocytes, abs: 1.52 ± 0.12* 10^9/liter
  T4/T8: 1.54 ± 0.11
[7]
  clinical effect: normalization of immunological indices
[8]
  clinical effect: prevented the occurrence of upper respiratory infections
